Assay results published in PubChem BioAssay AID330 (DTP/NCI, 2004).
Toxic doses and inconclusive results are not listed. Rule for the calls: active = survival T/C of 150% or more; inactive = T/C below 125% in these data.

Test system: P388 leukemia ip, CD2F1 mice, survival T/C
Assay: NCI In Vivo Anticancer Drug Screen. Data for tumor model P388 Leukemia (intraperitoneal) in CD2F1 (CDF1) mice
Details: endpoint: median survival time, higher = longer survival
Outline: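 Mice carrying the transplanted tumor received test compound or vehicle. Survival was recorded in each group, and the value is the treated-group measurement divided by that of the vehicle-treated control group.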

[1] = dose: 60.0 mg/kg/injection, schedule: Q01DX005 (ip), vehicle: saline with Tween-80
[2] = dose: 120.0 mg/kg/injection, schedule: Q01DX005 (ip), vehicle: saline with Tween-80
[3] = dose: 240.0 mg/kg/injection, schedule: Q01DX005 (ip), vehicle: saline with Tween-80
[4] = dose: 50.0 mg/kg/injection, schedule: Q01DX009 (ip), vehicle: saline with Tween-80
[5] = dose: 100.0 mg/kg/injection, schedule: Q01DX009 (ip), vehicle: saline with Tween-80
[6] = dose: 50.0 mg/kg/injection, schedule: Q01DX005 (ip), vehicle: Klucel (hydroxypropylcellulose) (HPC)
[7] = dose: 100.0 mg/kg/injection, schedule: Q01DX005 (ip), vehicle: Klucel (hydroxypropylcellulose) (HPC)
[8] = dose: 200.0 mg/kg/injection, schedule: Q01DX005 (ip), vehicle: Klucel (hydroxypropylcellulose) (HPC)
[9] = dose: 200.0 mg/kg/injection, schedule: Q04DX003 (ip), vehicle: saline with Tween-80
[10] = dose: 400.0 mg/kg/injection, schedule: Q04DX003 (ip), vehicle: saline with Tween-80
[11] = dose: 15.0 mg/kg/injection, schedule: Q01DX005 (ip), vehicle: saline
[12] = dose: 30.0 mg/kg/injection, schedule: Q01DX005 (ip), vehicle: saline
[13] = dose: 7.5 mg/kg/injection, schedule: Q01DX005 (ip), vehicle: saline

Measured: T/C

N#CN=[N+]([O-])c1ccccc1Br
inactive: dose: 3.12 mg/kg/injection, schedule: Q01DX009 (ip), vehicle: Klucel (hydroxypropylcellulose) (HPC) 98 % of control | dose: 6.25 mg/kg/injection, schedule: Q01DX009 (ip), vehicle: Klucel (hydroxypropylcellulose) (HPC) 100 % of control | dose: 6.25 mg/kg/injection, schedule: Q04DX003 (ip), vehicle: Klucel (hydroxypropylcellulose) (HPC) 100 % of control | dose: 12.5 mg/kg/injection, schedule: Q01DX009 (ip), vehicle: Klucel (hydroxypropylcellulose) (HPC) 114 % of control | dose: 12.5 mg/kg/injection, schedule: Q04DX003 (ip), vehicle: Klucel (hydroxypropylcellulose) (HPC) 91 % of control | dose: 25.0 mg/kg/injection, schedule: Q04DX003 (ip), vehicle: Klucel (hydroxypropylcellulose) (HPC) 87 % of control

O=C(Nc1ccccc1C(F)(F)F)N(CCO)C1CCCCC1
inactive: [1] 103 % of control | [2] 103 % of control | [3] 103 % of control

CN(C)C1C=C(c2ccccc2)OS(=O)(=O)C1 (centres undefined)
inactive: [4] 99 % of control | [5] 97 % of control | dose: 200.0 mg/kg/injection, schedule: Q01DX009 (ip), vehicle: saline with Tween-80 113 % of control

CC(N)C(O)C(C)C(=O)O (centres undefined)
inactive: dose: 12.5 mg/kg/injection, schedule: Q01DX009 (ip), vehicle: water 111 % of control | dose: 25.0 mg/kg/injection, schedule: Q01DX009 (ip), vehicle: water 107 % of control | dose: 50.0 mg/kg/injection, schedule: Q01DX009 (ip), vehicle: water 107 % of control | dose: 100.0 mg/kg/injection, schedule: Q01DX009 (ip), vehicle: water 98 % of control | dose: 200.0 mg/kg/injection, schedule: Q01DX009 (ip), vehicle: water 102 % of control

CN1C(=O)c2ccc3c4ccc5c(=O)n6c7ccccc7nc6c6ccc(c7ccc(c2c37)C1=O)c4c56
inactive: [6] 102 % of control | [7] 105 % of control | [8] 97 % of control

CCOC(=O)c1ccc(NC(=S)NC(=O)c2cccc(Br)c2)cc1
inactive: [1] 95 % of control | [2] 95 % of control | [3] 90 % of control

O=C(OC(c1ccccc1)(C(F)(F)F)C(F)(F)F)c1ccc(Cl)cc1
inactive: dose: 100.0 mg/kg/injection, schedule: Q04DX002 (ip), vehicle: Klucel (hydroxypropylcellulose) (HPC) 92 % of control | dose: 200.0 mg/kg/injection, schedule: Q04DX002 (ip), vehicle: Klucel (hydroxypropylcellulose) (HPC) 98 % of control | dose: 400.0 mg/kg/injection, schedule: Q04DX002 (ip), vehicle: Klucel (hydroxypropylcellulose) (HPC) 97 % of control

OC(Cc1ccnc2ccccc12)C(Cl)(Cl)Cl (centres undefined)
inactive: [9] 104 % of control | [10] 90 % of control

CCCC(=O)Oc1c(OC)cc(O)c2c(=O)c(O)c(-c3ccc(OC)cc3)oc12
inactive: dose: 14.0 mg/kg/injection, schedule: Q01DX005 (ip), vehicle: Klucel (hydroxypropylcellulose) (HPC) 89 % of control | dose: 56.0 mg/kg/injection, schedule: Q01DX005 (ip), vehicle: Klucel (hydroxypropylcellulose) (HPC) 87 % of control | dose: 112.0 mg/kg/injection, schedule: Q01DX005 (ip), vehicle: Klucel (hydroxypropylcellulose) (HPC) 108 % of control

CC1CC(C)N(C)C(C)C1 (centres undefined)
inactive: [11] 103 % of control | [12] 99 % of control | dose: 60.0 mg/kg/injection, schedule: Q01DX005 (ip), vehicle: saline 104 % of control

CCOC(CBr)(OCC)OCC
inactive: dose: 25.0 mg/kg/injection, schedule: Q01DX009 (ip), vehicle: saline with Tween-80 94 % of control | [4] 113 % of control | [5] 113 % of control

CN1C2CCC1CC(Cl)C2 (centres undefined)
inactive: dose: 6.0 mg/kg/injection, schedule: Q01DX005 (ip), vehicle: saline 107 % of control | [13] 91 % of control | dose: 12.0 mg/kg/injection, schedule: Q01DX005 (ip), vehicle: saline 107 % of control | [11] 99 % of control | dose: 25.0 mg/kg/injection, schedule: Q01DX005 (ip), vehicle: saline 102 % of control | [12] 99 % of control

CCN1c2ccccc2S(=O)(=O)n2c(COc3ccccc3)nnc21
inactive: dose: 25.0 mg/kg/injection, schedule: Q01DX001 (ip), vehicle: saline with Tween-80 95 % of control | dose: 50.0 mg/kg/injection, schedule: Q01DX001 (ip), vehicle: saline with Tween-80 95 % of control | dose: 100.0 mg/kg/injection, schedule: Q01DX001 (ip), vehicle: saline with Tween-80 87 % of control

OC1(C2(O)CCCC2)CCCC1
inactive: dose: 100.0 mg/kg/injection, schedule: Q04DX003 (ip), vehicle: saline with Tween-80 100 % of control | [9] 104 % of control | [10] 95 % of control

CC(=O)/C(=C\c1c(Cl)cccc1Cl)C(=O)CCN(C)C
inactive: [13] 120 % of control | [11] 117 % of control | [12] 117 % of control

O=[N+]([O-])c1ccc(C(Cl)C2(Br)C=c3ccccc3=C2)cc1 (centres undefined)
inactive: dose: 100.0 mg/kg/injection, schedule: Q04DX003 (ip), vehicle: Klucel (hydroxypropylcellulose) (HPC) 100 % of control | dose: 200.0 mg/kg/injection, schedule: Q04DX003 (ip), vehicle: Klucel (hydroxypropylcellulose) (HPC) 100 % of control | dose: 400.0 mg/kg/injection, schedule: Q04DX003 (ip), vehicle: Klucel (hydroxypropylcellulose) (HPC) 95 % of control

CC(C)C(NC(=O)OCC1c2ccccc2-c2ccccc21)C(=O)O (centres undefined)
inactive: [6] 104 % of control | [7] 99 % of control | [8] 98 % of control

C[CH2][Sn]([CH2]C)([n]1c(C)nc2ccccc21)[n]1c(C)nc2ccccc21
inactive: dose: 1.56 mg/kg/injection, schedule: Q01DX005 (ip), vehicle: Klucel (hydroxypropylcellulose) (HPC) 110 % of control | dose: 3.12 mg/kg/injection, schedule: Q01DX005 (ip), vehicle: Klucel (hydroxypropylcellulose) (HPC) 122 % of control | dose: 6.25 mg/kg/injection, schedule: Q01DX005 (ip), vehicle: Klucel (hydroxypropylcellulose) (HPC) 122 % of control

NS(=O)(=O)c1ccc(N2C(=S)N(c3ccccc3)C(=Nc3ccccc3)C2=Nc2ccccc2)cc1
inactive: dose: 50.0 mg/kg/injection, schedule: Q01DX005 (ip), vehicle: Klucel + Tween-80 96 % of control | dose: 100.0 mg/kg/injection, schedule: Q01DX005 (ip), vehicle: Klucel + Tween-80 105 % of control | dose: 200.0 mg/kg/injection, schedule: Q01DX005 (ip), vehicle: Klucel + Tween-80 89 % of control

O=c1ccn(C2OC(COC(c3ccccc3)(c3ccccc3)c3ccccc3)C(OC(c3ccccc3)(c3ccccc3)c3ccccc3)C2O)c(=O)[nH]1 (centres undefined)
inactive: dose: 25.0 mg/kg/injection, schedule: Q01DX005 (ip), vehicle: Klucel (hydroxypropylcellulose) (HPC) 99 % of control | [6] 95 % of control | [7] 105 % of control | [8] 97 % of control

CC(C)C(NC=O)C(=O)O (centres undefined)
inactive: [6] 101 % of control | dose: 50.0 mg/kg/injection, schedule: Q01DX005 (ip), vehicle: saline with Tween-80 91 % of control | [7] 101 % of control | dose: 100.0 mg/kg/injection, schedule: Q01DX005 (ip), vehicle: saline with Tween-80 98 % of control | [8] 95 % of control | dose: 200.0 mg/kg/injection, schedule: Q01DX005 (ip), vehicle: saline with Tween-80 94 % of control
